Literature values, collected in US8975284B2, “Co-solvent compositions and methods for improved delivery of dantrolene therapeutic agents” (US WorldMeds LLC, priority 2007, dated 2015).
Read-outs that look alike come from different tables or passages of the source.

Tests used:
[1] = not given; remark: listed apart in the source
[2] = not given; remark: listed apart in the source

| Structure (SMILES) | pKa | pKa [1] | solubility of free acid form [2] |
| --- | --- | --- | --- |
| O=C1CN(/N=C/c2ccc(-c3ccc([N+](=O)[O-])cc3)o2)C(=O)[N-]1.[Na+] [Dantrolene sodium, 1-[[5-(p-nitrophenyl)furfurylidene]-amino]hydantoin sodium salt] | 7.4 | – | – |
| CC(C)(C)O [TBA, Tertiary Butyl Alcohol] | – | 15.37 ± 0.29 | – |
| O=C1CN(N=Cc2ccc(-c3ccc([N+](=O)[O-])cc3)o2)C(=O)N1 [dantrolene, 1-[5-(p-nitrophenyl)furfurylideneamino]hydantoin] | about 7.5 | – | totally insoluble |
